# Results from patent publication US20250135009A1, “INTRATYMPANIC DRUG CONTROLLED RELEASE-TYPE FORMULATION COMPRISING N-ACYLATED GLYCOL CHITOSAN” (The Industry & Academic Cooperation in Chungnam National …, priority 2021, published 2025).
# Legend:
# physchem = assay: physchem
# Procedure: Changes in water solubility of dexamethasone (DEX) with changes in HGC concentration were analyzed. An excessive amount of DEX was added to 3 mL of an aqueous solution of HGC (PBS, HGC concentration=0 to 4%, w/v). The samples were then stirred for 30 minutes and incubated in a shaking water bath (100 rpm, 37° C.) for 24 hours. All the samples were filtered through a syringe filter (0.8 μm) to remove precipitates and then analyzed using a UV-visible spectrophotometer (V-730, JASCO, Korea). The solubility value of DEX was determined using a standard curve of various DEX concentrations obtained at 242 nm. The test was repeated three times.
# [1] = In vitro drug release in PBS using a dialysis membrane; format: physicochemical; details: HGC 3.0 wt %, drug 2.0 wt % formulations and drug controls
# Procedure: The in vitro drug release profiles of the thermogel formulations were examined in PBS (pH 7.4) using a dialysis membrane. […] Then, the dialysis bags were immersed in 50 mL of PBS and incubated in a shaking water bath (SI-600R, Jeio Tech, Seoul, Korea) at 37° C. and 100 rpm or less.
# After incubation, 10 ml of the release medium was taken out and the same amount of fresh medium was added again. The collected samples were analyzed by UV-Vis measurement. The DEX release profile was determined by measuring the UV absorbance of DEX at 242 nm. The experiment was performed in triplicate and data are expressed as mean±SD.
# 023 microspheres loaded with dexamethasone were mixed with 4 wt % of HGC hydrogel. An in vitro drug release test was conducted in a PBS (pH 7.4, 50 ml) environment in the same manner as in Example 4. Sampling was performed at days 0, 0.5, 1, 2, 4, 7, 14, 21, 28, and 30.
# Dexamethasone-loaded 061 or 062 microspheres were mixed with 4 wt % of HGC hydrogel, and an in vitro drug release test therefor was conducted in the same manner as the test for the 023.
compound,measurement,setting,value
"C[C@@H]1C[C@H]2[C@@H]3CCC4=CC(=O)C=C[C@]4(C)[C@@]3(F)[C@@H](O)C[C@]2(C)[C@@]1(O)C(=O)CO [DEX, Dexamethasone]",increase of solubility of dexamethasone,physchem,about 4 times
same,solubility at 24 h,"physchem; 37 °C, aqueous with cosolvent or surfactant or cyclodextrin, thermodynamic from solid",0.221 mg/mL
same,solubility of dexamethasone in PBS,"physchem; HGC 0 wt %, 37° C., 24 hours",0.064 mg/mL
"C[C@@H]1C[C@H]2[C@@H]3CCC4=CC(=O)C=C[C@]4(C)[C@@]3(F)[C@@H](O)C[C@]2(C)[C@@]1(O)C(=O)COP(=O)([O-])[O-].[Na+].[Na+] [DSP, DEX phosphate disodium salt]",drug release behavior (Example 8-2),[1],completely released the drug quickly within a few hours
